A word on the Inhibition: it is the percentage by which the read-out fell short of the control.

This passage reports Inhibition and EC50 results from ChEMBL document CHEMBL1121805, “Nucleosides containing chemically reactive groups” (1981).

Each structure is given as a SMILES string. Some results are limits rather than exact numbers.

For test [1], the system named is L1210. The test can be described thus: Percent inhibition of incorporation of [5-3H]-Uridine into DNA of L1210 cells. The test is classed as functional, Mus musculus.
Test [2] has as its system L1210. The experiment in a line: Percent inhibition of incorporation of [8-14C]-Adenine into DNA of L1210 cells. It counts as functional, Mus musculus.
Test [3] relates to L1210. The experiment in a line: Percent inhibition of incorporation of [Me-3H]-Thymidine into DNA of L1210 cells. It counts as functional, Mus musculus.
Test [4] deals with L1210. The experiment in a line: Cytotoxicity was evaluated against the L1210 cell lines in vitro. It counts as functional. The settings on record: Mus musculus, read-out: ED50 (the source's name).

On to `Cc1cn(C2CC(O)C(CCNC(=O)CBr)O2)c(=O)[nH]c1=O` (centres undefined), for which the Inhibition in the test on L1210 [1] was 60%; with L1210 [2] it was 67%; in the test with L1210 [3], 52%.

Consider `O=C(CBr)NC[C@H]1OC(n2cnc3c(O)ncnc32)[C@H](O)[C@@H]1O` (some centres undefined), for which, in the test with L1210 [4], the EC50 is less than 5 µg/mL.
